Experimental data reported in patent EP4722228A1, “NEW COMPOUND TARGETING MUSK AND USE THEREOF” (The University of Tokyo, priority 2023, dated 2024).
Bridge positions count the residues as written; N and C are the ends. Square brackets hold non-standard residues; d marks the D form. Peptide text beside a SMILES is read from it. I, II: the chains in the order shown. * marks the point of attachment. Palmitoyl = CCCCCCCCCCCCCCCC(=O)*; PEG3 = NCCOCCOCCOCCC(=O)O; Dap = NC[C@H](N)C(=O)O

Target: T1, mouse MuSK (Mus musculus, UniProt Q61006)
T1 construct: made in house
T1 sequence (Q61006 22-494 limits assumed): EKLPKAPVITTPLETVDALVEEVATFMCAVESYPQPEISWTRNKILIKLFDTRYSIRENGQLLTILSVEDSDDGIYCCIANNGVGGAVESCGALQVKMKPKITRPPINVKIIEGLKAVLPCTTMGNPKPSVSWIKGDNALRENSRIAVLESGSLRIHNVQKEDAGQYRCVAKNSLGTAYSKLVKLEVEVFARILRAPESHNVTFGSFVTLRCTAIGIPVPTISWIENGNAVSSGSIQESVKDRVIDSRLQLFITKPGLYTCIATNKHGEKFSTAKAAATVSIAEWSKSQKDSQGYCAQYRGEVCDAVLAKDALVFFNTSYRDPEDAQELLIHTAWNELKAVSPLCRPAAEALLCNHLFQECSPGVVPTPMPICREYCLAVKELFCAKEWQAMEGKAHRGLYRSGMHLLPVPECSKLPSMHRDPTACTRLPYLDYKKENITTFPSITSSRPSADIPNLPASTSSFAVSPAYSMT
Assay: SPR binding activity test to mouse MuSK (Biacore)
Settings: Table 5
Protocol: The strength of binding between MuSK and the cyclic peptides was evaluated by quantitatively measuring the binding kinetics (binding affinity (dissociation constant) KD) of the cyclic peptides to MuSK immobilized on a sensor chip via an Fc tag, using surface plasmon resonance (SPR).
According to the standard immobilization protocol provided by the manufacturer, Fc-tagged human/mouse/rat MuSK was immobilized on a Protein G chip or a Protein A chip (Cytiva). A running buffer for the monomer/dimer peptides contained 0.010 M phosphate, 0.14 M NaCl, 0.0027 M KCl, 0.05% (v/v) Tween 20, and 0.1% (v/v) DMSO. A running buffer for the monomer/dimer U-bodies contained 0.010 M phosphate, 0.14 M NaCl, 0.0027 M KCl, and 0.05% (v/v) Tween 20. A series of concentrations of each monomer peptide, dimer peptide, monomer U-body, and dimer U-body was injected as analytes. A 1:1 binding fitting analysis was applied using Biacore evaluation software, and ka, kd, and KD values were determined.
Fc-tagged human MuSK was prepared according to the procedure described in Example 1(1). In addition, Fc-tagged mouse MuSK was used by expressing a nucleotide sequence encoding the Fc-tagged mouse MuSK extracellular domain (SEQ ID NO: 34). […]
The affinity of the U-bodies and their complexes obtained as described above for MuSK of human, rat, and mouse was evaluated (binding activity test). […]

Kd: 8.8 nM
Structure (SMILES): CCCCCCCCCCCCCCCC(=O)NCCCC[C@H](NC(=O)[C@H](CNC(=O)CCOCCOCCOCCNC(=O)CNC(=O)[C@@H]1CSCC(=O)N[C@H](Cc2ccc(O)cc2)C(=O)N2CCC[C@H]2C(=O)N[C@@H](CO)C(=O)N[C@@H](Cc2ccc(O)cc2)C(=O)N[C@@H](Cc2c[nH]cn2)C(=O)N[C@@H]([C@@H](C)O)C(=O)N[C@@H](CC(N)=O)C(=O)N[C@@H](C(C)C)C(=O)N[C@@H](C(C)C)C(=O)N[C@@H](C)C(=O)N[C@@H](CO)C(=O)N[C@@H](CC(C)C)C(=O)N[C@@H](CCCCN)C(=O)N[C@@H](CCCNC(=N)N)C(=O)N1)NC(=O)CCOCCOCCOCCNC(=O)CNC(=O)[C@@H]1CSCC(=O)N[C@H](Cc2ccc(O)cc2)C(=O)N2CCC[C@H]2C(=O)N[C@@H](CO)C(=O)N[C@@H](Cc2ccc(O)cc2)C(=O)N[C@@H](Cc2c[nH]cn2)C(=O)N[C@@H]([C@@H](C)O)C(=O)N[C@@H](CC(N)=O)C(=O)N[C@@H](C(C)C)C(=O)N[C@@H](C(C)C)C(=O)N[C@@H](C)C(=O)N[C@@H](CO)C(=O)N[C@@H](CC(C)C)C(=O)N[C@@H](CCCCN)C(=O)N[C@@H](CCCNC(=N)N)C(=O)N1)C(N)=O [MuSK7-pal] (I: {CH2CO}-[dY]PSYHTNVVASLKRCG[PEG3][Dap]K(Palmitoyl)-NH2 / II: {CH2CO}-[dY]PSYHTNVVASLKRCG[PEG3]; amide I:18-II:C; thioether I:N-I:15, II:N-II:15)
